Patent US9468670B2, “Melatonin-based treatment and diagnosis of bile duct disease” (Texas A&M University System, priority 2011, dated 2016)

Experiments:
AANAT = assay: Expression of AANAT in liver sections, cholangiocytes, pineal gland and small intestine (immunohistochemistry, real-time PCR); assay type: in vivo, rat
Protocol: Male Fischer 344 rats (150-175 gm) were purchased from Charles River Laboratories (Wilmington, Mass.) and housed at 22° C. with 12:12 hr light/dark cycles. The animals had free access to standard chow and drinking water. […] Animal experiments were performed in accordance with a protocol approved by the Scott & White and Texas A&M Health Science Center IACUC. In separate experiments, normal rats treated with Vivo-Morpholino sequences of AANAT (5'-[…] NO:1), to reduce the biliary expression of AANAT) or Morpholino mismatched (5'-[…] NO:2)) (Gene Tools LCC) (1 mg/Kg BW/day) for 1 week via an implanted portal vein catheter. Serum, liver tissue, cholangiocytes, kidney, spleen, small intestine, stomach and heart were collected. Since our goal was to knock-down AANAT expression in the liver without inhibiting AANAT expression in other organs, we used a lower dose (1 mg/Kg/day) of Vivo-Morpholino than that described in the original study (3.0 mg/kg/day (Arora et al., 2002). This approach minimizes the amount of Vivo-Morpholino that circulates outside of the liver after slow infusion into the portal vein. See below for the surgical procedure for the implantation of the portal vein catheter by which AANAT Vivo-Morpholino or Morpholino mismatched was administered. The following was evaluated: (i) the expression of AANAT in liver sections and cholangiocytes from the selected groups of animals; and (ii) the effectiveness of the AANAT Vivo-Morpholino in lowering the expression of AANAT in cholangiocytes was determined. […] Data were expressed as relative mRNA levels ±SEM of the selected gene to glyceraldehyde-3-phosphate dehydrogenase (GAPDH) ratio. […]

[1] = rat, in vivo, 1 mg/kg/day
Protocol: In separate experiments, normal rats treated with Vivo-Morpholino sequences of AANAT (5′-[…] (SEQ ID NO:1), to reduce the biliary expression of AANAT) or Morpholino mismatched (5′-[…] (SEQ ID NO:2)) (Gene Tools LCC) (1 mg/Kg BW/day) for 1 week via an implanted portal vein catheter. Serum, liver tissue, cholangiocytes, kidney, spleen, small intestine, stomach and heart were collected. Since our goal was to knock-down AANAT expression in the liver without inhibiting AANAT expression in other organs, we used a lower dose (1 mg/Kg/day) of Vivo-Morpholino than that described in the original study (3.0 mg/kg/day (Arora et al., 2002). This approach minimizes the amount of Vivo-Morpholino that circulates outside of the liver after slow infusion into the portal vein. See below for the surgical procedure for the implantation of the portal vein catheter by which AANAT Vivo-Morpholino or Morpholino mismatched was administered.
Biliary proliferation was determined by measurement of the percentage of PCNA-positive cholangiocytes by immunohistochemistry, and intrahepatic bile duct mass (IBDM) by immunohistochemistry for CK-19 (Mancinelli et al., 2010). Biliary apoptosis was evaluated by semiquantitative terminal deoxynucleotidyltransferase biotin-dUTP nick-end labeling (TUNEL) kit (Chemicon International, Inc., Temecula, Calif.) (Mancinelli et al., 2010). IBDM was determined as the area occupied by CK-19 positive-bile duct/total area×100 (Mancinelli et al., 2010). The morphological changes/damage in liver, spleen, kidney, heart, stomach, and small intestine were evaluated from AANAT Vivo-Morpholino- or mismatch-treated rats by H&E staining. The serum levels of the transaminases, glutamate pyruvate transaminases (SGPT) and glutamic oxaloacetic transaminase (SGOT), alkaline phosphatase (ALP) and total bilirubin were evaluated using a Dimension RxL Max Integrated Chemistry system (Dade Behring Inc., Deerfield Ill.), Chemistry Department, Scott & White.

[2] = normal rats, 1 mg/Kg BW/day 1 week vs. controls

Row | Molecule | Expression of AANAT in bile ducts (AANAT; BDL rats treated with melatonin (20 mg/L in tap water) 1 week) | ALP [1] [Units/L] | SGOT [1] [Units/L] | SGPT [1] [Units/L] | Total bilirubin [1] [mg/L] | AANAT biliary expression (AANAT; [2]) | AANAT mRNA levels in pineal gland and small intestine (AANAT; [2])
1 | COc1ccc2[nH]cc(CCNC(C)=O)c2c1 [melatonin] | increased |  |  |  |  |  | 
2 | AANAT Vivo-Morpholino: Vivo-Morpholino sequence of AANAT 5′-GTTCCCCAGCTTTGGAAGTGGTCCC (SEQ ID NO:1), to reduce the biliary expression of AANAT (all phosphorodiamidate morpholino (PMO); Vivo-Morpholino delivery moiety attached, position not given here, further chemistry not fully specified) |  | 230.2 ± 5.2 | 148.5 ± 22.5 | 72.25 ± 0.2 | <0.1 | reduced | increased
